The test system of series [1] is Mus musculus. Kind of series: In vivo inhibition of RSK4 in nude mouse xenografted with human TE-10 cells assessed as suppression of RPS6 phosphorylation at 25 to 50 mg/kg, ip administered for 20 consecutive days. The class given is functional, organism-based. Particulars: dose lower […], dose upper 50.0 mg/kg, time 20.0 day. For orientation: In xenograft studies the graft and the host belong to different species.

Series [2] is described as follows: Toxicity in nude mouse xenografted with human TE-10 cells assessed as morphological changes in kidney at 25 to 50 mg/kg, ip administered for 20 consecutive days by hematoxylin-eosin staining based analysis. Particulars: in vivo, 480 h, dose 25-50 mg/kg, time 20 day. The class given is organism-based.
Series [3] concerns the target T1, Ribosomal protein S6 kinase alpha-1 (Homo sapiens, UniProt Q15418). Kind of series: Inhibition of RSK1 (unknown origin) at 100 nM relative to control.
The subject of series [4] is TE-10. Kind of series: Antitumor activity against human TE-10 cells xenografed in nude mouse assessed as tumor growth inhibition at 25 mg/kg, ip administered for 20 consecutive days by caliper method relative to control. The class given is functional. Particulars: TE-10, ip, 480 h, time 20 day, read-out: TGI.
Series [5] concerns the target T2, Ribosomal protein S6 kinase alpha-2 (Homo sapiens, UniProt Q15349). Kind of series: Inhibition of RSK3 in human TE-10 cells assessed as suppression of c-fos phosphorylation at 1 to 10 uM measured after 24 hrs by Western blot analysis. The class given is cell-based. The following applies: dose 1-10 µM. (Immunoblotting shows a protein as a band on a membrane.)
For series [6], the system named is TE-10. Kind of series: Antitumor activity against human TE-10 cells xenografed in nude mouse assessed as tumor growth inhibition at 50 mg/kg, ip administered for 20 consecutive days by caliper method relative to control. The class given is functional. Particulars: TE-10, ip, 480 h, time 20 day, read-out: TGI.
The target of series [7] is T2, Ribosomal protein S6 kinase alpha-2. Kind of series: Inhibition of RSK3 in human TE-10 cells assessed as suppression of HistoneH3 phosphorylation at residue 35 at 1 to 10 uM measured after 24 hrs by Western blot analysis. Particulars: dose 1-10 µM. The series is classed as cell-based.
Series [8] is described as follows: Toxicity in nude mouse xenografted with human TE-10 cells assessed as morphological changes in heart at 25 to 50 mg/kg, ip administered for 20 consecutive days by hematoxylin-eosin staining based analysis. The series is classed as organism-based. Particulars: in vivo, 480 h, dose 25-50 mg/kg, time 20 day.
In series [9] the target is T2, Ribosomal protein S6 kinase alpha-2. Kind of series: Inhibition of RSK3 (unknown origin) at 100 nM relative to control.
A short description of series [10]: Volume of distribution at steady state in iv dosed Sprague-Dawley rat. The class given is ADME, organism-based. Particulars: in vivo, read-out: Vdss.
Series [11] deals with T3, Ribosomal protein S6 kinase alpha-3 (Homo sapiens, UniProt P51812). Kind of series: Inhibition of RSK2 (unknown origin) at 100 nM relative to control.
T3 sequence (P51812 whole entry): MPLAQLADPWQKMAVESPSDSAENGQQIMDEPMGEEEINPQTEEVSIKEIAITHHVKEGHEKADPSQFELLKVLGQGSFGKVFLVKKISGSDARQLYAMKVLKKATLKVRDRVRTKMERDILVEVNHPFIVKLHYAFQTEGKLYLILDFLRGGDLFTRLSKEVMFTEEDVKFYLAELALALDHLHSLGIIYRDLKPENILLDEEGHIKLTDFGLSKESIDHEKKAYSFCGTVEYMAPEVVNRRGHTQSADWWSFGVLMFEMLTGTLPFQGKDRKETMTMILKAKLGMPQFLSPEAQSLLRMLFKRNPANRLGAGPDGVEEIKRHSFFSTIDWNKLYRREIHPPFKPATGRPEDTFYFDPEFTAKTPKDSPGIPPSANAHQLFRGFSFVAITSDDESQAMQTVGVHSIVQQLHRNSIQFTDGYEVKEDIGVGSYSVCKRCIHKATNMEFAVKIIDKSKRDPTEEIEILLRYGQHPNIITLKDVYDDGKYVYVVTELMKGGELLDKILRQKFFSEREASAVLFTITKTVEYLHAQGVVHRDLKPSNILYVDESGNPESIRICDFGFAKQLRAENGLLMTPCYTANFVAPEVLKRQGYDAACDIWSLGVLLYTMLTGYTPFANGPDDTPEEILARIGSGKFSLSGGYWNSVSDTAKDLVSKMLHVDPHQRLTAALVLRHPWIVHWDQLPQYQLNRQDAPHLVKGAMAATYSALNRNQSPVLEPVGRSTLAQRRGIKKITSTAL
The target of series [12] is T3, Ribosomal protein S6 kinase alpha-3. Kind of series: Inhibition of RSK2 in human TE-10 cells assessed as suppression of creb-phosphorylation at 1 to 10 uM measured after 24 hrs by Western blot analysis. The class given is cell-based. The following applies: dose 1-10 µM.
The nature of series [13]: Toxicity in nude mouse xenografted with human TE-10 cells assessed as morphological changes in lung at 25 to 50 mg/kg, ip administered for 20 consecutive days by hematoxylin-eosin staining based analysis. The series is classed as organism-based. Particulars: in vivo, 480 h, dose 25-50 mg/kg, time 20 day.
The test system of series [14] is TE-10. Kind of series: Inhibition of cell invasion in human TE-10 cells measured after 24 hrs by Giemsa staining based transwell invasion assay. The series is classed as functional. The following applies: TE-10, 24 h.
In series [15] the target is T3, Ribosomal protein S6 kinase alpha-3. Kind of series: Inhibition of RSK2 in human TE-10 cells assessed as suppression of HSP27 at residue 33 phosphorylation at 1 to 10 uM measured after 24 hrs by Western blot analysis. The class given is cell-based. Particulars: dose 1-10 µM.
Series [16] is described as follows: Half life in iv dosed Sprague-Dawley rat. The series is classed as ADME, organism-based. The following applies: in vivo.
Series [17] can be described thus: Toxicity in nude mouse xenografted with human TE-10 cells assessed as effect on body weight loss at 25 to 50 mg/kg, ip administered for 20 consecutive days. The class given is organism-based. Particulars: in vivo, 480 h, dose 25-50 mg/kg, time 20 day.
In series [18] the target is T1, Ribosomal protein S6 kinase alpha-1. Kind of series: Inhibition of RSK1 in human TE-10 cells assessed as suppression of P27KIP1 phosphorylation at 1 to 10 uM measured after 24 hrs by Western blot analysis. The series is classed as cell-based. The following applies: dose 1-10 µM.
Series [19] deals with T3, Ribosomal protein S6 kinase alpha-3. Kind of series: Inhibition of RSK2 in human TE-10 cells assessed as suppression of HSP27 at residue 32 phosphorylation at 1 to 10 uM measured after 24 hrs by Western blot analysis. The following applies: dose 1-10 µM. The series is classed as cell-based.
Series [20] is described as follows: Clearance in iv dosed Sprague-Dawley rat. The class given is ADME, organism-based. Particulars: in vivo.
Series [21] concerns TE-10. Kind of series: Antiproliferative activity against human TE-10 cells assessed as inhibition of cell proliferation measured up to 48 hrs by CCK-8 assay. The class given is functional, cell-based. Background: Tetrazolium dyes change colour on reduction, which living cells bring about.
Series [22] deals with T1, Ribosomal protein S6 kinase alpha-1. Kind of series: Inhibition of RSK1 in human TE-10 cells assessed as suppression of EIF4B phosphorylation at 1 to 10 uM measured after 24 hrs by Western blot analysis. The class given is cell-based. Particulars: dose 1-10 µM.
Series [23] has as its system Mus musculus. Kind of series: In vivo inhibition of RSK4 in nude mouse xenografted with human TE-10 cells assessed as suppression of GSK3beta phosphorylation at 25 to 50 mg/kg, ip administered for 20 consecutive days. Particulars: dose lower […], dose upper 50.0 mg/kg, time 20.0 day. The series is classed as functional, organism-based.
Series [24] can be described thus: Toxicity in nude mouse xenografted with human TE-10 cells assessed as effect on organ damage at 25 to 50 mg/kg, ip administered for 20 consecutive days. The series is classed as organism-based. The following applies: in vivo, 480 h, dose 25-50 mg/kg, time 20 day.
The target of series [25] is T2, Ribosomal protein S6 kinase alpha-2. Kind of series: Inhibition of RSK3 in human TE-10 cells assessed as suppression of HistoneH3 phosphorylation at residue 34 at 1 to 10 uM measured after 24 hrs by Western blot analysis. Particulars: dose 1-10 µM. The series is classed as cell-based.
Series [26] is described as follows: Toxicity in nude mouse xenografted with human TE-10 cells assessed as morphological changes in liver at 25 to 50 mg/kg, ip administered for 20 consecutive days by hematoxylin-eosin staining based analysis. The class given is organism-based. The following applies: in vivo, 480 h, dose 25-50 mg/kg, time 20 day.
For series [27], the target named is T3, Ribosomal protein S6 kinase alpha-3. Kind of series: Inhibition of full length recombinant His-tagged human RSK2 expressed in baculovirus expression system using biotin-labelled AGAGRSRHSSYPAGT-OH as substrate in presence of ATP.
The target in series [28] is T1, Ribosomal protein S6 kinase alpha-1. Kind of series: Inhibition of full length recombinant His-tagged human RSK1 expressed in baculovirus expression system using biotin-labelled AGAGRSRHSSYPAGT-OH as substrate in presence of ATP.
Series [29] concerns the target T2, Ribosomal protein S6 kinase alpha-2. Kind of series: Inhibition of full length recombinant GST-tagged human RSK3 expressed in insect cell using biotin-labelled AGAGRSRHSSYPAGT-OH as substrate in presence of ATP.

The values below come from ChEMBL document CHEMBL4840336, “Discovery, Optimization, and Structure-Activity Relationship Study of Novel and Potent RSK4 Inhibitors as Promising Agents for the Treatment of Esophageal Squamous Cell Carcinoma” (J Med Chem, 2021).

Active and inactive are the calls of the source.

T1 sequence (Q15418 whole entry): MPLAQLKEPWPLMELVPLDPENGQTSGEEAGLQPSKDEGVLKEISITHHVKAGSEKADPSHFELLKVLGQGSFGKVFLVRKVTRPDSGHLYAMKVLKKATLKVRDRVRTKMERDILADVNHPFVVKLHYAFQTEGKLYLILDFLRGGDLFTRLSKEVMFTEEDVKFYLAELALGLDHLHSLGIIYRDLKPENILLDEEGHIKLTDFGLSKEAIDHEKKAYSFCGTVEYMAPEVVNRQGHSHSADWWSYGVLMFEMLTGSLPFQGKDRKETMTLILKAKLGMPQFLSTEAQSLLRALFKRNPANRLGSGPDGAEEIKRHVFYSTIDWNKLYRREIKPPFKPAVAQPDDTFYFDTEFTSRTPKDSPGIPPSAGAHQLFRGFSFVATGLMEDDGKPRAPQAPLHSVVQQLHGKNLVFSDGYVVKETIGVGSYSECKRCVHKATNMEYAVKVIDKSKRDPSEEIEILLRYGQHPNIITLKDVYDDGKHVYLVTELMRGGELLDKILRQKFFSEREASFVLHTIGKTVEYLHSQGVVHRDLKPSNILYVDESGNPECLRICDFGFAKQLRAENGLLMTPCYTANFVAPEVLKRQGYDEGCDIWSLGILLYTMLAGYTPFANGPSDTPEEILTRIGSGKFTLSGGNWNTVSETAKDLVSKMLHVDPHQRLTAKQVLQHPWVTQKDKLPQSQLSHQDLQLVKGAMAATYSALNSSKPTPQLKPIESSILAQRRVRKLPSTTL
T2 sequence (Q15349 whole entry): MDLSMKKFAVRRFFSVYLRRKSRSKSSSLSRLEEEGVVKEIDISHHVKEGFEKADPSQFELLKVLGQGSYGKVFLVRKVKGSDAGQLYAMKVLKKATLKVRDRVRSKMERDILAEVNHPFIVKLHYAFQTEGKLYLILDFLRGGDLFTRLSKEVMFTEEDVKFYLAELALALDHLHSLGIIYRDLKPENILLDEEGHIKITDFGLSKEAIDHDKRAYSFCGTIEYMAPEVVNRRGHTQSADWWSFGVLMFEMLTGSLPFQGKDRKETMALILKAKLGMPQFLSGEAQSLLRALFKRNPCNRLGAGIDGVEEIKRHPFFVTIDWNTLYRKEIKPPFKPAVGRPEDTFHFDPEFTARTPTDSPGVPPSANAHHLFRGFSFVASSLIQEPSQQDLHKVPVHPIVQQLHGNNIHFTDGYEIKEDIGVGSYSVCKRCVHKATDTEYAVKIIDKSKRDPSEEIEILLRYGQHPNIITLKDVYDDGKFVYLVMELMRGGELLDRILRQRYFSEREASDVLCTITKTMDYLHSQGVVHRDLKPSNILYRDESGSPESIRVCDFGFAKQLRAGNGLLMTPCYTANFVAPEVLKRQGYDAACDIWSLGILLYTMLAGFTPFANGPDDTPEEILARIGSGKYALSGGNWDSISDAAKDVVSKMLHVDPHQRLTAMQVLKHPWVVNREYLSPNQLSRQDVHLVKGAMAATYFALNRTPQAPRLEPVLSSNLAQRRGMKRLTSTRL

As a reminder, the inhibition is the relative decrease from the control value, in per cent. What is called IC50 is the midpoint of a concentration-inhibition curve. In general, half-life refers to the time needed for the level to fall by half in the phase considered. A lower half-life goes with fast loss. The clearance is the rate of elimination divided by the concentration. High values mean a high capacity for elimination, low ones a low capacity for elimination. As for `CC(C)C1OC(=O)N(C2CCCC2)c2nc(Nc3cc(F)c(O)c(F)c3)ncc21` (centres undefined), the inhibition result (in the series with Mus musculus [1]; in [5]; in [7]; in [12]; in [15]; in [18]) was “inactive” each time. Also, the inhibition entry (in series [19]; in [22]; in the series on Mus musculus [23]; in series [25]) was “inactive” each time. For the same compound, the Activity entry in series [2], in [8], in series [13], in series [17], in series [24] and in [26] was “Non-Toxic” each time. Also, the inhibition in series [3] was greater than 90%; in series [9] it was greater than 90%; in [11], greater than 90%; in the series with TE-10 [21] (time hrs <=48), “Dose-Dependent Effect”. In the series on TE-10 [4], the inhibition in vivo at 25 mg/kg came out at 73.4%. Also, the inhibition in vivo at 50 mg/kg in the series with TE-10 [6] was determined as 48.7%. In [10], the Vd came out at 1.28 L/kg. In addition, the IC50 in the series on TE-10 [14] was determined as 983 nM; with TE-10 [21] (TE-10, 48 h) it was 570 nM. Besides, the half-life in series [16] was 55.2 min. This compound also showed a clearance in [20] of 67.5 mL/min/kg.

Take `CN1CCN(c2ccc(-c3ccncc3-c3cc(F)c(O)c(F)c3)cc2)CC1`: the half-maximal inhibitory concentration (IC50) in series [27] amounted to 4 nM; in series [28] it was 6 nM; in [29] it was 4 nM.

For `Oc1c(F)cc(-c2cnccc2-c2ccc(N3CCOCC3)cc2)cc1F`, the figures for the IC50 in series [27], in series [28] and in series [29] were 6 nM, 5 nM and 13 nM, respectively.

Consider `CC(C)CCN1c2nc(Nc3cc(F)c(O)c(F)c3)ncc2N(C)C(=O)C1C` (centres undefined), for which the inhibition in vivo at 50 mg/kg with TE-10 [6] was determined as 41.6%.
